“Also recorded” adds a separate entry of the source.
Columns and labels:
Format in all cases: in vivo, rat (male Sprague Dawley)
gastric acid secretion = test: Basic gastric acid secretion after interruption following continuous administration (pylorus ligation); settings: for basic gastric acid secretion (in words): P<0.05
Experimental: (§1) Male Sprague Dawley rats weighing from 240 to 280 g were used as experimental animals.
(§2) As H2 B, famotidine, and as gastrin receptor antagonist, L-365,260 described in Example 281 of Japanese Patent Publication (KOKAI) 63-238069 (EP 167,919; EP 284,256; U.S. Pat. No. 4,820,834; U.S. Pat. No. 5,004,741)), were used. […] For administration, a suspension of 10 mg famotidine or L-365,260 in 1 ml vehicle (0.5% methyl cellulose solution) was prepared. The combined formulation is a mixture of an equal amount of each suspension.
(§3) A previously determined dose of each test compound (1.0 ml or 3.0 ml/kg) was charged in a syringe and administered orally to a rat directly into gaster using a stainless probe needle (.phi.1.2×L 80 mm) equipped to the syringe.
(§4) B. Continuous administration test
(§5) (A) A group consists of animals that received vehicle (0.5% methyl cellulose solution, 1 ml/kg).
(§6) (B) A group consists of animals that received famotidine (a suspension of 10 mg famotidine in 1 ml 0.5% methyl cellulose) continuously at a dose of 10 or 30 mg/kg/day.
(§7) (C) A group consists of animals that received L-365,260 continuously at a dose of 10 mg/kg/day.
(§8) (D) A group consists of animals that received a combined formulation of famotidine and L-365,260 at a dose of 10 mg/kg/day for each compound.
(2) Basic gastric acid secretion after interruption following the continuous administration of famotidine
To a rat bred normally was administered continuously famotidine at a dose of 10 or 30 mg/kg/day for a week. After the final administration, the basis gastric acid secretion (total acid excretion) was determined according to the pylorus ligation method (4-hour-method) [Shay, H. et al., Gastroenterology, 5: 43-61 (1945)]. The determination was carried out following the final administration, […], […]
Thus, rats were subjected to laparotomy under ether anesthetization and pylorus was ligated. Four hours later, gaster was extracted under ether anaesthetization and the accumulated gastric juice was collected. After centrifugation (3000 rpm, 10 min), pH and acidity of gastric juice was determined. The acidity was measured upto pH 7.0 with 0.1N NaOH. The total acid secretion (μEq/4 hr) was calculated by multiplying acidity by the volume of juice for each animal.

[1] = tested on: aspirin-induced gastric mucosa damage; test: Aspirin-induced gastric mucosa damage following continuous administration; settings: for lesion index (mm^2): 10 mg/kg p.o., 7 days, aspirin 200 mg/kg after two-day interruption; for aspirin-induced gastric mucosa damage (in words): continuous administration, two-day interruption
Experimental: as §1, §2, §3, §4, §5, §6, §7, §8
(3) Aspirin-induced gastric mucosa damage following a continuous administration of famotidine
After two-day-interruption following a continuous administration of famotidine, aspirin (200 mg/kg) was administered to rats orally. Seven hours later, gaster was extracted under ether anesthetization and subjected to formalin treatment with 1% formalin solution. The length (mm) of gastric mucosa damage appearing around fundic glands was then measured. Lesion index was calculated by adding all the measurements. Rats had been starved for 24 hr before aspirin administration (ad libitum for water).

[2] = tested on: gastric damage due to stress induced by restricted water-immersion; test: Gastric damage due to stress induced by restricted water-immersion (single administration); settings: for lesion index (% to control): 10 rats
Experimental: as §1, §2, §3
(1) Gastric damage due to stress induced by restricted water-immersion (single administration test)
Twenty four hour starved (ad libitum for water) male Sprague Dawley rats (270-290 g) were orally administered with a test compound and, 30 min later, were loaded with stress in the following manner. Rats were placed in a stress cage (Natsume Seisakusyo) and immersed in water tank at 23° C. upto the level of pectoral processus xiphoideus [Takagi et al, Chem. Pharm. Bull (Tokyo) 12, 465-472 (1964)]. Seven hours later, animals were withdrawn from the water tank and killed with ether. The gaster was extracted and 1% formalin solution (13 ml) was injected in it. […] The gaster was observed under anatomic microscope (x10) and longer diameter (mm) of each damages (bleeding erosion) appearing around fundic glands was measured.

[3] = day 2 after 7-day treatment, 10 mg/kg/day (Table 6)
[4] = day 3 after 7-day treatment, 10 mg/kg/day (Table 6)
[5] = immediately after 7 days, 10 mg/kg/day
[6] = immediately after 7 days, 30 mg/kg/day

NC(N)=Nc1nc(CSCCC(N)=NS(N)(=O)=O)cs1 [Famotidine, famotidine]
basic gastric acid secretion (in words) (gastric acid secretion; 10 mg/kg/day, after a 48-hour interruption): increased significantly | basic gastric acid secretion (in words) (gastric acid secretion; 10 mg/kg/day, immediately after interrupting): inhibited significantly | basic gastric acid secretion (in words) (gastric acid secretion; 30 mg/kg/day, after a 4-day interruption): increased significantly | basic gastric acid secretion (in words) (gastric acid secretion; 30 mg/kg/day, immediately after interrupting): inhibited significantly | increase in the basic acid secretion, acid rebound (in words) (gastric acid secretion; 2nd day after interruption following continuous administration): An increase in the basic acid secretion (acid rebound) was observed | inhibition (%) of total acid secretion (gastric acid secretion; 24 hr after 7-day treatment, 10 mg/kg/day): -38.3% | total acid secretion (gastric acid secretion; 24 hr after 7-day treatment, 10 mg/kg/day (Table 4)): 821.0 ± 214.2 μEq/4 hr | inhibition (%) of total acid secretion (gastric acid secretion; 48 hr after 7-day treatment, 10 mg/kg/day): -105.7% | total acid secretion (gastric acid secretion; 48 hr after 7-day treatment, 10 mg/kg/day (Table 4)): 948.9 ± 187.5 μEq/4 hr | total acid secretion (gastric acid secretion; [3]): 788.4 ± 217.7 μEq/4 hr | total acid secretion (gastric acid secretion; [4]): 682.4 ± 132.6 μEq/4 hr | inhibition (%) of total acid secretion (gastric acid secretion; day 3 after 7-day treatment, 30 mg/kg/day): -45.3% | inhibition (%) of total acid secretion (gastric acid secretion; day 4 after 7-day treatment, 30 mg/kg/day): -44.2% | inhibition (%) of total acid secretion (gastric acid secretion; [5]): 61.6% | total acid secretion (gastric acid secretion; [5]): 151.8 ± 29.8 μEg/49 hr | inhibition (%) of total acid secretion (gastric acid secretion; [6]): 59.9% | total acid secretion (gastric acid secretion; [6]): 158.4 ± 54.9 μEg/49 hr | lesion index (mm^2) [1]: 67.0 ± 14.2 mm^2 | aspirin-induced gastric mucosa damage (in words) [1]: the condition deteriorated significantly; also recorded: the ulcer index got worse significantly on the 2nd day after interruption | lesion index (% to control) ([2]; 1 mg/kg p.o.): 33.4 ± 5.5 % to control | inhibition of appearance of stress gastric damage (in words) ([2]; 3 mg/kg): inhibited the appearance significantly | lesion index (% to control) ([2]; 3 mg/kg p.o.): 33.4 ± 5.5 % to control

Cc1cccc(NC(=O)N[C@@H]2N=C(c3ccccc3)c3ccccc3N(C)C2=O)c1 [L-365,260]
acid excretion after continuous administration alone (in words) (gastric acid secretion; alone for a week): did not differed from those obtained in control group | total acid secretion (gastric acid secretion; [3]): 631.4 ± 147.9 μEq/4 hr | total acid secretion (gastric acid secretion; [4]): 681.0 ± 142.9 μEq/4 hr | lesion index (mm^2) [1]: 43.2 ± 13.7 mm^2 | aspirin-induced gastric mucosa damage (in words) [1]: the condition seemed to have tendency to deteriorate, but it is not significant | lesion index (% to control) ([2]; 1 mg/kg p.o.): 130.4 ± 20.6 % to control | lesion index (% to control) ([2]; 3 mg/kg p.o.): 84.7 ± 17.4 % to control | inhibition of appearance of stress gastric damage (in words) ([2]; at either dose (1 or 3 mg/kg)): does not inhibit the appearance of stress gastric damage

From US5776929A, “Benzodiazepine derivative” (Shionogi & Co., Ltd., priority 1993, dated 1998)
